Experimental data published in patent US10280165B2, “Pyridopyrimidinones and methods of use thereof” (Genentech, Inc., priority 2015, dated 2019).

Target: HEK cells stably transfected with tetracycline inducible hNR1 and hNR2A (Homo sapiens (Human), UniProt Q05586+Q12879)
Test: Assay 1: Cell-Based Assay (cytosolic calcium, positive allosteric modulation)
Details: for Emax: HEK293, scaled relative to 100 μM L-glutamate maximal response (100%) and 0 μM L-glutamate (0%), with 30 μM glycine and 300 nM L-glutamate, read-out: Max %; for EC50: with 30 μM glycine and 300 nM L-glutamate (EC30), given for compounds reaching maximal response plateaus
Method: Assay 1: Cell-Based Assay
HEK cells stably transfected with tetracycline inducible hNR1 and hNR2A were seeded into clear bottom 384 well poly-D-lysine coated plates (2.5×10^4 cells per well) in Minimum Essential Media (MEM; without L-) including 7.5 μg mL doxycycline and 500 μM (+)-ketamine. The cells were incubated at 37° C. in 5% CO2 for 24 h. For measurement of changes in cytosolic calcium, the seeding media was removed and the cells incubated at 37° C. for 60 min with 1× Becton Dickinson Calcium Assay Kit reagent in Hanks Balanced Salt Solution (HBSS; w/o magnesium, including 1.8 mM calcium, 0.65 mg ml^−1 probenecid and 10 μM (+)-ketamine, pH 7.15) then allowed to equilibrate to rt for 30 min. Concentration-effect curves to Positive Allosteric Modulators (PAMs) were constructed by adding different concentrations (with 30 μM glycine and 300 nM L-glutamate (EC30)) to different wells in HBSS. Compounds were added after a 10 second baseline read and maximum level of relative fluorescence units (RFU) was measured over a 5 min period. Responses were scaled relative to 100 μM L-glutamate maximal response (100%) and 0 μM L-glutamate (0%). EC50 values are provided for compounds reaching maximal response plateaus, and the max % (EC50 (--)) only if no plateau was reached.
A four-parameter Hill equation was fitted to individual concentration-effect curves:
[formula] in which Y, S0, Sinf, AC50, n and c were effect, lower-asymptote, upper-asymptote, mid-point location, slope parameter, and concentration respectively.

Sequence of HEK cells stably transfected with tetracycline inducible hNR1 and hNR2A (Q12879 23-1464, other chains not shown): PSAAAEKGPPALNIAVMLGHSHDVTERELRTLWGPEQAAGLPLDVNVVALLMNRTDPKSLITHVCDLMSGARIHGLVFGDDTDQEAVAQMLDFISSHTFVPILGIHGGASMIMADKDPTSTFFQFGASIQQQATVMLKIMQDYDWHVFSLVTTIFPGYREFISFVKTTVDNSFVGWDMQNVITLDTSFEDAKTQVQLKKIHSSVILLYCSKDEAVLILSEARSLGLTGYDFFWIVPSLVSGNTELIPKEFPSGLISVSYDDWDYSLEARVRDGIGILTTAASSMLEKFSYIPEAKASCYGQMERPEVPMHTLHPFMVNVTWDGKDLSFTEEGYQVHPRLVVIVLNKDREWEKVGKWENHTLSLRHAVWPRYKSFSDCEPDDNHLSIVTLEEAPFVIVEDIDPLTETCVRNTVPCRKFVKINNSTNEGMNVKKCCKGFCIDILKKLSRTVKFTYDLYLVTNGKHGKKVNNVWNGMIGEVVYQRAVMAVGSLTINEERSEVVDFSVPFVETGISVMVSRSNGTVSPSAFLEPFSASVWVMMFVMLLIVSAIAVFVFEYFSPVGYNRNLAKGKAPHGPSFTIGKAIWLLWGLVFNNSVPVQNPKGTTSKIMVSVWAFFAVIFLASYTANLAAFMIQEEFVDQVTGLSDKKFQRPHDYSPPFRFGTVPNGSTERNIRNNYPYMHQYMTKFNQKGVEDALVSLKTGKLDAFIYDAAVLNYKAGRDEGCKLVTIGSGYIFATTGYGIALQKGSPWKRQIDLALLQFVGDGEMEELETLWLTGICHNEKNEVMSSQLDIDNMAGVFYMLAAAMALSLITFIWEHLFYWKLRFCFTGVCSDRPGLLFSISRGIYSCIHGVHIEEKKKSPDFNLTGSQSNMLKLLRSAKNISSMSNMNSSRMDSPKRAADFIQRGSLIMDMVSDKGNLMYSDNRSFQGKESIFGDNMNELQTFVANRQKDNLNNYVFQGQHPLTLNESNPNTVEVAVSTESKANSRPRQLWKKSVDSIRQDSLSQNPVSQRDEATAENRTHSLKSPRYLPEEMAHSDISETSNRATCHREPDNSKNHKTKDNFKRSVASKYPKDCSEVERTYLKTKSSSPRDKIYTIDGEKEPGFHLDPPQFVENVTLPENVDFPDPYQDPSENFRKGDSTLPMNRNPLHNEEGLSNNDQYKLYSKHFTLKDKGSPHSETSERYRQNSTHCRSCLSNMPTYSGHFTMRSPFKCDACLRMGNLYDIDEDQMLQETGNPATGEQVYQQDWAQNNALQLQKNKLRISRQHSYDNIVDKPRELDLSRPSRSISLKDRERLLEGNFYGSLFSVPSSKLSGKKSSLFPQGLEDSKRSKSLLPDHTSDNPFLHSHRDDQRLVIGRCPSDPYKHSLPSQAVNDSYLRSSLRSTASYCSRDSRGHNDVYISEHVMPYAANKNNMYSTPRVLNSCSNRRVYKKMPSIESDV

**Q.** Which results are given for N#C[C@H]1C[C@@H]1c1c(F)ccc2nc(Cn3nc(C(F)(F)F)cc3Cl)cc(=O)n12 [Compound 46, (1S,2S)-2-[2-[[5-chloro-3-(trifluoromethyl)pyrazol-1-yl]methyl]-7-fluoro-4-oxo-pyrido[1,2-a]pyrimidin-6-yl]cyclopropanecarbonitrile]?
**A.** Emax: 107%; EC50: 3.22 µM

**Q.** CC(=O)c1cccc2nc(Cn3nc(C(F)(F)F)cc3Cl)cc(=O)n12 [Compound 49, 6-acetyl-2-[[5-chloro-3-(trifluoromethyl)pyrazol-1-yl]methyl]pyrido[1,2-a]pyrimidin-4-one] was tested. Which Emax did it give?
**A.** 126%

**Q.** And the EC50?
**A.** 12.3 µM

**Q.** N#C[C@@H]1C[C@H]1c1cccc2nc(Cn3nc(C(F)(F)F)cc3Cl)cc(=O)n12 [Compound 40, (1R,2R)-2-[2-[[5-chloro-3-(trifluoromethyl)pyrazol-1-yl]methyl]-4-oxo-pyrido[1,2-a]pyrimidin-6-yl]cyclopropanecarbonitrile] was tested. Which Emax did it give?
**A.** 148%

**Q.** How did the Emax turn out when CCc1cccc2nc(CN(CC)c3ccccc3)cc(=O)n12 [Compound 6, 6-ethyl-2-[(N-ethylanilino)methyl]pyrido[1,2-a]pyrimidin-4-one] was run?
**A.** 138%

**Q.** What about the EC50 of the same molecule?
**A.** 11.5 µM

**Q.** Which Emax does the source give for CCOc1c(C)ccc2nc(CN(CC)c3ccc(F)cc3)cc(=O)n12 [Compound 11, 6-ethoxy-2-[(N-ethyl-4-fluoro-anilino)methyl]-7-methyl-pyrido[1,2-a]pyrimidin-4-one] here?
**A.** 53%

**Q.** With CC(=O)c1c(C)ccc2nc(Cn3nc(Cl)cc3C(F)(F)F)cc(=O)n12 [Compound 51, 6-acetyl-2-[[3-chloro-5-(trifluoromethyl)pyrazol-1-yl]methyl]-7-methyl-pyrido[1,2-a]pyrimidin-4-one] as the molecule, how does the Emax read?
**A.** 114%

**Q.** What about the EC50 of the same molecule?
**A.** 9.1 µM

**Q.** How did the Emax turn out when Cc1cc(C2CC2C#N)n2c(=O)cc(Cn3nc(Cl)cc3C(F)(F)F)nc2c1 (centres unmarked) [Compound 43, 2-[2-[[3-chloro-5-(trifluoromethyl)pyrazol-1-yl]methyl]-8-methyl-4-oxo-pyrido[1,2-a]pyrimidin-6-yl]cyclopropanecarbonitrile] was run?
**A.** 145%

**Q.** And the EC50?
**A.** 0.269 µM

**Q.** What does the source list for O=c1cc(Cn2nc(C(F)(F)F)cc2Cl)nc2ccccn12 [Compound 48, 2-[[5-chloro-3-(trifluoromethyl)pyrazol-1-yl]methyl]pyrido[1,2-a]pyrimidin-4-one]?
**A.** Emax: 73%; EC50: 32.4 µM

**Q.** For CCNC(=O)c1cccc2nc(Cc3cccc(C#N)c3F)cc(=O)n12 [Compound 21, 2-[(3-cyano-2-fluoro-phenyl)methyl]-N-ethyl-4-oxo-pyrido[1,2-a]pyrimidine-6-carboxamide], which Emax is on record?
**A.** 43%

**Q.** How did the Emax turn out when CCNC(=O)c1c(C)ccc2nc(Cn3nc(C4CC4)cc3C(F)(F)F)cc(=O)n12 [Compound 18, 2-[[3-cyclopropyl-5-(trifluoromethyl)pyrazol-1-yl]methyl]-N-ethyl-7-methyl-4-oxo-pyrido[1,2-a]pyrimidine-6-carboxamide] was run?
**A.** 122%

**Q.** And the EC50?
**A.** 16.2 µM

**Q.** Which Emax does the source give for CNC(=O)c1c(C)ccc2nc(Cc3cccc(C4CC4)c3F)cc(=O)n12 [Compound 24, 2-[(3-cyclopropyl-2-fluoro-phenyl)methyl]-N,7-dimethyl-4-oxo-pyrido[1,2-a]pyrimidine-6-carboxamide] here?
**A.** 67%

**Q.** For CCNC(=O)c1c(C)ccc2nc(COc3ccc(F)cc3)cc(=O)n12 [Compound 16, N-ethyl-2-[(4-fluorophenoxy)methyl]-7-methyl-4-oxo-pyrido[1,2-a]pyrimidine-6-carboxamide], which Emax is on record?
**A.** 159%

**Q.** And the EC50?
**A.** 3.6 µM

**Q.** Which Emax does the source give for N#C[C@@H]1C[C@H]1c1c(F)ccc2nc(Cn3nc(C(F)(F)F)cc3Cl)cc(=O)n12 [Compound 45, (1R,2R)-2-[2-[[5-chloro-3-(trifluoromethyl)pyrazol-1-yl]methyl]-7-fluoro-4-oxo-pyrido[1,2-a]pyrimidin-6-yl]cyclopropanecarbonitrile] here?
**A.** 151%

**Q.** How did the Emax turn out when CCN(Cc1cc(=O)n2c(-c3ccco3)cccc2n1)c1ccc(F)cc1 [Compound 13, 2-[(N-ethyl-4-fluoro-anilino)methyl]-6-(2-furyl)pyrido[1,2-a]pyrimidin-4-one] was run?
**A.** 172%

**Q.** And the EC50?
**A.** 0.371 µM

**Q.** Cc1ccc2nc(Cn3nc(Cl)cc3C(F)(F)F)cc(=O)n2c1C1CC1C#N (centres unmarked) [Compound 44, 2-[2-[[3-chloro-5-(trifluoromethyl)pyrazol-1-yl]methyl]-7-methyl-4-oxo-pyrido[1,2-a]pyrimidin-6-yl]cyclopropanecarbonitrile] was tested. Which Emax did it give?
**A.** 158%

**Q.** And the EC50?
**A.** 0.227 µM

**Q.** How did the Emax turn out when Cc1cc([C@@H]2C[C@H]2C#N)n2c(=O)cc(Cn3nc(C(F)(F)F)cc3Cl)nc2c1 [Compound 38, (1R,2R)-2-(2-[[5-chloro-3-(trifluoromethyl)pyrazol-1-yl]methyl]-8-methyl-4-oxo-pyrido[1,2-a]pyrimidin-6-yl]cyclopropanecarbonitrile] was run?
**A.** 144%

**Q.** And the EC50?
**A.** 0.039 µM

**Q.** For N#C[C@H]1C[C@@H]1c1cccc2nc(Cn3nc(C(F)(F)F)cc3Cl)cc(=O)n12 [Compound 41, (1S,2S)-2-[2-[[5-chloro-3-(trifluoromethyl)pyrazol-1-yl]methyl]-4-oxo-pyrido[1,2-a]pyrimidin-6-yl]cyclopropanecarbonitrile], which Emax is on record?
**A.** 111%

**Q.** What about the EC50 of the same molecule?
**A.** 2.9 µM

**Q.** For Cc1ccc2nc(Cn3nc(C(F)(F)F)cc3Cl)cc(=O)n2c1[C@H]1C[C@@H]1CO [Compound 37, 2-[[5-chloro-3-(trifluoromethyl)pyrazol-1-yl]methyl]-6-[(1S,2S)-2-(hydroxymethyl)cyclopropyl]-7-methyl-pyrido[1,2-a]pyrimidin-4-one], which Emax is on record?
**A.** 127%

**Q.** How did the Emax turn out when CCN(Cc1cc(=O)n2cc(C)ccc2n1)c1ccc(F)cc1 [Compound 4, 2-[(N-ethyl-4-fluoro-anilino)methyl]-7-methyl-pyrido[1,2-a]pyrimidin-4-one] was run?
**A.** 134%

**Q.** What about the EC50 of the same molecule?
**A.** 5.2 µM

**Q.** What does the source list for CCN(Cc1cc(=O)n2c(C(=O)NC)c(C)ccc2n1)c1ccc(F)cc1 [Compound 27, 2-[(N-ethyl-4-fluoro-anilino)methyl]-N,7-dimethyl-4-oxo-pyrido[1,2-a]pyrimidine-6-carboxamide]?
**A.** Emax: 162%; EC50: 2.7 µM

**Q.** Which Emax does the source give for CCNC(=O)c1c(C)ccc2nc(Cc3cccc(C#N)c3F)cc(=O)n12 [Compound 19, 2-[(3-cyano-2-fluoro-phenyl)methyl]-N-ethyl-7-methyl-4-oxo-pyrido[1,2-a]pyrimidine-6-carboxamide] here?
**A.** 65%

**Q.** Which Emax does the source give for CCNC(=O)c1cc(C)cc2nc(Cn3nc(C(F)(F)F)cc3C3CC3)cc(=O)n12 [Compound 32] here?
**A.** 136%

**Q.** With CCN(Cc1cc(=O)n2c(OC)c(C)ccc2n1)c1ccc(F)cc1 [Compound 10, 2-[(N-ethyl-4-fluoro-anilino)methyl]-6-methoxy-7-methyl-pyrido[1,2-a]pyrimidin-4-one] as the molecule, how does the Emax read?
**A.** 51%

**Q.** How did the Emax turn out when CC(=O)c1c(C)ccc2nc(Cn3nc(C(F)(F)F)cc3Cl)cc(=O)n12 [Compound 50, 6-acetyl-2-[[5-chloro-3-(trifluoromethyl)pyrazol-1-yl]methyl]-7-methyl-pyrido[1,2-a]pyrimidin-4-one] was run?
**A.** 124%

**Q.** And the EC50?
**A.** 7.7 µM

**Q.** With Cc1ccc2nc(Cn3nc(C(F)(F)F)cc3Cl)cc(=O)n2c1[C@H]1C[C@@H]1C#N [Compound 34, (1S,2S)-2-[2-[[5-chloro-3-(trifluoromethyl)pyrazol-1-yl]methyl]-7-methyl-4-oxo-pyrido[1,2-a]pyrimidin-6-yl]cyclopropanecarbonitrile] as the molecule, how does the Emax read?
**A.** 99%

**Q.** And the EC50?
**A.** 25.5 µM

**Q.** For Cc1ccc2nc(CN(C)c3ccccc3)cc(=O)n2c1 [Compound 2, 7-methyl-2-[(N-methylanilino)methyl]pyrido[1,2-a]pyrimidin-4-one], which Emax is on record?
**A.** 75%

**Q.** What does the source list for N#C[C@@H]1C[C@H]1c1cc(C(F)(F)F)cc2nc(Cn3nc(C(F)(F)F)cc3Cl)cc(=O)n12 [Compound 56, (1R,2R)-2-(2-((5-chloro-3-(trifluoromethyl)-1H-pyrazol-1-yl)methyl)-4-oxo-8-(trifluoromethyl)-4H-pyrido[1,2-a]pyrimidin-6-yl)cyclopropanecarbonitrile]?
**A.** Emax: 142%; EC50: 0.123 µM

**Q.** CCc1cccc2nc(CN(CC)c3ccc(F)cc3)cc(=O)n12 [Compound 5, 6-ethyl-2-[(N-ethyl-4-fluoro-anilino)methyl]pyrido[1,2-a]pyrimidin-4-one] was tested. Which Emax did it give?
**A.** 134%

**Q.** What about the EC50 of the same molecule?
**A.** 6.4 µM

**Q.** For N#CC1CC1c1c(F)ccc2nc(Cn3nc(Cl)cc3C(F)(F)F)cc(=O)n12 (centres unmarked) [Compound 47, 2-[2-[[3-chloro-5-(trifluoromethyl)pyrazol-1-yl]methyl]-7-fluoro-4-oxo-pyrido[1,2-a]pyrimidin-6-yl]cyclopropanecarbonitrile], which Emax is on record?
**A.** 200%

**Q.** And the EC50?
**A.** 0.178 µM

**Q.** CNC(=O)c1c(C)ccc2nc(Cc3cccc(C(F)(F)F)c3F)cc(=O)n12 [Compound 22, 2-[[2-fluoro-3-(trifluoromethyl)phenyl]methyl]-N,7-dimethyl-4-oxo-pyrido[1,2-a]pyrimidine-6-carboxamide] was tested. Which Emax did it give?
**A.** 69%

**Q.** With CCNC(=O)c1c(C)ccc2nc(Cn3ccc(C(F)(F)F)n3)cc(=O)n12 [Compound 28, N-ethyl-7-methyl-4-oxo-2-[[3-(trifluoromethyl)pyrazol-1-yl)methyl]pyrido[1,2-a]pyrimidine-6-carboxamide] as the molecule, how does the Emax read?
**A.** 60%
